One test addresses Nonstructural protein 1 (Influenza A virus, UniProt Q194T2). Format: functional, Influenza A virus (A/California/07/2009(H1N1)).
Test [1] is described as follows: viability loss in MITF-independent A375 cells – cell-based, CellTiter-Glo luminescence, dry powder, set 2, counter-screen for MITF inhibitor project, dose response (AID 624489).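 Note: actives are compounds lowering A375 viability meaning general cytotoxicity.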 The format is functional. As to conditions: A-375. (In general: ATP-based viability assays read luminescence as a measure of living cells.)
The nature of test [2]: cytotoxicity in MITF-independent A375 cells – cell-based, CellTiter-Glo luminescence, dry powder, set 4, counter-screen for MITF inhibitor project, dose response (AID 624364).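 Note: A375 melanoma cells are MITF independent so this is a counter screen.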 The format is functional. The following applies: A-375.
For test [3], the target named is T1, Histone-lysine N-methyltransferase NSD2 (Homo sapiens, UniProt O96028).
T1 sequence (O96028 whole entry): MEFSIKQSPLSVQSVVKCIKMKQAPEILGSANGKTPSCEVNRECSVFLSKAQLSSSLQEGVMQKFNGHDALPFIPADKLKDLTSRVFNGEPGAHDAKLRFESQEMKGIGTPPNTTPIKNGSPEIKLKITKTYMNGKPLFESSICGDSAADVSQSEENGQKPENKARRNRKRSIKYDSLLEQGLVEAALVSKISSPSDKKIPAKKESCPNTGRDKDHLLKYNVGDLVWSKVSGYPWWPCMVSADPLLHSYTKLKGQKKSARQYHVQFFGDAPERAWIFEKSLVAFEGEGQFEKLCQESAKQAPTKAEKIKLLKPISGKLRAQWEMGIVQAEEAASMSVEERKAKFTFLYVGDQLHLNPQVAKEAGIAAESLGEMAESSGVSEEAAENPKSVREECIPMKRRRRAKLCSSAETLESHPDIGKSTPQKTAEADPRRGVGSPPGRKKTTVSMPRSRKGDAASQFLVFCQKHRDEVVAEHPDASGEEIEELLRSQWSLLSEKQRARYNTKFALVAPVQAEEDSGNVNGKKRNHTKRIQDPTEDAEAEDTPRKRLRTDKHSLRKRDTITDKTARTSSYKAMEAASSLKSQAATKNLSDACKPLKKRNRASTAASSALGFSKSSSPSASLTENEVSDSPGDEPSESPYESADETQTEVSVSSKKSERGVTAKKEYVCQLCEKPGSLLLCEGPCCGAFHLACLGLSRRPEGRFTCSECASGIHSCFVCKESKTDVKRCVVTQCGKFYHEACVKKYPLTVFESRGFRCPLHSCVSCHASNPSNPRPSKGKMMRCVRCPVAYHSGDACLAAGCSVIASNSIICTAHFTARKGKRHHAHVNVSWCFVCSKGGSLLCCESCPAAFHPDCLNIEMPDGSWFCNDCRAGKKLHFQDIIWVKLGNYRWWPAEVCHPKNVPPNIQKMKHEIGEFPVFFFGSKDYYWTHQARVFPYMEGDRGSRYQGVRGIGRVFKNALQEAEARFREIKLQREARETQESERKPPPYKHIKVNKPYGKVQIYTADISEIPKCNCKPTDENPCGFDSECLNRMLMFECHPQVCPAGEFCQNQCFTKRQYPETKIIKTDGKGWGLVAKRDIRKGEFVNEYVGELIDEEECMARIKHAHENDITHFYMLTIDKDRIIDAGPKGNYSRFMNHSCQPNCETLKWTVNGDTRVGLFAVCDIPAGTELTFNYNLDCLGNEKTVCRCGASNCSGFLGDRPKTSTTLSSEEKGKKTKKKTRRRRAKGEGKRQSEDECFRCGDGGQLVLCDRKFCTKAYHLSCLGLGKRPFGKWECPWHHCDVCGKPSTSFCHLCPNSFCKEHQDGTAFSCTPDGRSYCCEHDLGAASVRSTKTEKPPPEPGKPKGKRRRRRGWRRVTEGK
Format: biochemical.

The target of the next test is T2, Caspase-7 (Homo sapiens, UniProt P55210).
T2 sequence (P55210 whole entry): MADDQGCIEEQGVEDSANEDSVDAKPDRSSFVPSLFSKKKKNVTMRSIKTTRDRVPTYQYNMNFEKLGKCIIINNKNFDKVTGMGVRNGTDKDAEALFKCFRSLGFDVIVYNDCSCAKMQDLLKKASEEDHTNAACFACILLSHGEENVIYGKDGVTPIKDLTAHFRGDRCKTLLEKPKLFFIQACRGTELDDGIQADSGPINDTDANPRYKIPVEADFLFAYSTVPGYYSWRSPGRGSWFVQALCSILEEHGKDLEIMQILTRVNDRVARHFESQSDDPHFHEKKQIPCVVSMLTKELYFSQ
The test is described as follows: caspase-7 enzyme inhibition, selectivity check – biochemical, DEVD-R110 fluorescence, cherry-pick, selectivity assay for caspase-6 inhibitor project, dose response (AID 743295). The format is functional.

The target of a further test is T3, Caspase-3 (Homo sapiens, UniProt P42574).
T3 sequence (P42574 whole entry): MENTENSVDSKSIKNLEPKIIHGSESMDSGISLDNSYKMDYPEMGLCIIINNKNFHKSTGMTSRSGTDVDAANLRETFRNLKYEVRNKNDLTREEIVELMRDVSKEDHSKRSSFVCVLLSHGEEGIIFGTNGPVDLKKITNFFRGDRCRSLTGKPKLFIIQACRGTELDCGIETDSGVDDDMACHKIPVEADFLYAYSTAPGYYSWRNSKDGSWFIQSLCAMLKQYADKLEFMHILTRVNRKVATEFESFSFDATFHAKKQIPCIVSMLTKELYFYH
As to the kind of experiment: human caspase-3 protease activity blockade – biochemical, fluorescence, cherry-picked samples, selectivity assay for caspase-6 allosteric inhibitor project, dose response (AID 743291).

In another test the target is Caspase-8 (Homo sapiens, UniProt Q14790). As to the kind of experiment: inhibitors of purified CASP8 protease – biochemical, Z-IETD-R110 fluorescence, cherry-picked samples, selectivity assay for caspase-6 inhibitor project, dose response (AID 743294).
Caspase-8, sequence (Q14790 217-374 limits assumed): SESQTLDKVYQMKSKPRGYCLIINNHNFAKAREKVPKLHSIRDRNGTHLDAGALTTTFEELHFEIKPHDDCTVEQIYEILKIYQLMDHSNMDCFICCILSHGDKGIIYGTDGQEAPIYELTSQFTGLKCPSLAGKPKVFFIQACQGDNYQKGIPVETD
Caspase-8, sequence (Q14790 385-479 limits assumed): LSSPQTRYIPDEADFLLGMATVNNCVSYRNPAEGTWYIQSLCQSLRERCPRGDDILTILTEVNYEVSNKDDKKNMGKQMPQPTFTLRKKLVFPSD
For the next test, the target named is Phospholipase A2 (Homo sapiens, UniProt P04054). Format: functional.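 Note: confirmatory dose-response counterscreen on phospholipase A2, testing hits that came from an ultra-high-throughput screen for ATG4B inhibitors.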
Phospholipase A2, sequence (P04054 whole entry): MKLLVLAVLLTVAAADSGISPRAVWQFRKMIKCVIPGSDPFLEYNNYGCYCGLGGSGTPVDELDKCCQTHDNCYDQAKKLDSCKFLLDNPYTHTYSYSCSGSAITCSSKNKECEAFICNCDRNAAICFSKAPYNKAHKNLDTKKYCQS
Another test addresses T4, Caspase-6 (Homo sapiens, UniProt P55212).
T4 sequence (P55212 whole entry): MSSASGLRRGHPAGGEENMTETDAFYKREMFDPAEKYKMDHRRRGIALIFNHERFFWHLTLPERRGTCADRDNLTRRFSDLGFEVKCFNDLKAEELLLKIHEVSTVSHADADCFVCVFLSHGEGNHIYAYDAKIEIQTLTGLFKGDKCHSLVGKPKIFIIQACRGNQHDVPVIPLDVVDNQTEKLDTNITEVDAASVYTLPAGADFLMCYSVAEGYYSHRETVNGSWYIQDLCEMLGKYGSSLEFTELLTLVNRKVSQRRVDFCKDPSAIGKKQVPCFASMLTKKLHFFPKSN
The test is described as follows: inhibition of CASP6 peptide cleavage – biochemical, VEID-R110 fluorescence, cherry-pick, dose response (AID 720632).

The target in test [4] is T5, Carboxy-terminal domain RNA polymerase II polypeptide A small phosphatase 1 (Homo sapiens, UniProt Q9GZU7).
T5 sequence (Q9GZU7 whole entry): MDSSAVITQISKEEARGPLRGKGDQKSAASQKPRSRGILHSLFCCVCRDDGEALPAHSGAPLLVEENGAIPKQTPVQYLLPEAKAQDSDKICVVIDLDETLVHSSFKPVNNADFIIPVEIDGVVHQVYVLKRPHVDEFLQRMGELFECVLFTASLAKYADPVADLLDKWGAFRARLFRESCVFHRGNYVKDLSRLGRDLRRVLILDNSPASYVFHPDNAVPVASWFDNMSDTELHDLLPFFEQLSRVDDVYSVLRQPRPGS
As to the kind of experiment: CTDSP1 inhibitors, concentration-response, biochemical, absorbance readout, ultra-high-throughput screen actives (AID 540297). Format: functional.

In another test the target is T6, Cysteine protease ATG4B (Homo sapiens, UniProt Q9Y4P1).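 Note: Fluorescence-based dose-response confirmation assay measuring inhibition of ATG4B activity.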
T6 sequence (Q9Y4P1 whole entry): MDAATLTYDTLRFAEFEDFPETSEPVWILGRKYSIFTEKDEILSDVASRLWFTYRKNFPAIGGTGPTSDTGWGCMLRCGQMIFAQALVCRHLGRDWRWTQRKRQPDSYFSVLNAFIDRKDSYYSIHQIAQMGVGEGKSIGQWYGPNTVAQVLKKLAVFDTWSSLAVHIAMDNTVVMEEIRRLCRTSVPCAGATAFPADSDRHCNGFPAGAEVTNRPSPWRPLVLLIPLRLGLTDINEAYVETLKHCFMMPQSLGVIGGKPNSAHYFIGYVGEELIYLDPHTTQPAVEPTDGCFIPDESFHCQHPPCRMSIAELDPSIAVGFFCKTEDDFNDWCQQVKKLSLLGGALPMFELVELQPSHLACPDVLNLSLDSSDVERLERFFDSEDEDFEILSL
Format: functional.

Test [5] is described as follows: HEK293 Cytotoxicity Assay Measured in Cell-Based System Using Plate Reader - 7071-01_Inhibitor_Dose_CherryPick_Activity_Set2. Format: functional.
A further test deals with HEK293. As to the kind of experiment: viability loss in HEK293T cells – cell-based, ATP luminescence, cherry-pick samples, cytotoxicity control, dose response (AID 687005).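 Note: cells exposed to compound for 48 hours.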 The following applies: Homo sapiens. The format is functional.
The nature of test [6]: MITF Orthogonal Assay: SK-MEL-5 CTG Assay Measured in Cell-Based System Using Plate Reader - 2084-02_Inhibitor_Dose_DryPowder_Activity_Set7. The format is functional.
Test [7] in a line: inhibitors of TRPM1-promoter reporter in SK-MEL-5 – cell-based, luciferase, dry powder, set 8, MITF inhibitor project, dose response (AID 624430). Format: functional.
The nature of test [8]: MITF: Counter assay: A375 proliferation Measured in Cell-Based System Using Plate Reader - 2084-03_Inhibitor_Dose_DryPowder_Activity_Set8. Format: functional. The following applies: A-375.

Drawing on ChEMBL document CHEMBL1201862, “PubChem BioAssay data set” (2004), this text covers IC50 and AC50 for 4 compounds.

In general, IC50 refers to the concentration that inhibits the measured activity by half. One may read the AC50 as the concentration giving half of the maximal activity seen.

Calls of active or inactive are those of the source.

Nonstructural protein 1, sequence (Q194T2 whole entry): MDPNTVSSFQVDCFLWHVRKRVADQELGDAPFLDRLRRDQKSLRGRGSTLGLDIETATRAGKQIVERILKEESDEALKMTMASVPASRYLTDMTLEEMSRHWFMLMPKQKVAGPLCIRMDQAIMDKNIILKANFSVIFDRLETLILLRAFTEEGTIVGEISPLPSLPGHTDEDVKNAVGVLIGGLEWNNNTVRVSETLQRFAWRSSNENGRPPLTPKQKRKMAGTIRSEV

`O=C1C(NS(=O)(=O)c2ccc(Br)cc2)=C(N2CCCCC2)C(=O)c2ccccc21`: the half-inhibitory concentration (IC50) at Nonstructural protein 1 is 14.5 µM (active). Further, the results for the AC50 in [1], in test [2] and in test [3] were > 70 µM (inactive), > 70 µM (inactive) and 6.22 µM (active), respectively.
Take `O=c1oc(-c2ccccc2)nc2sc3c(c12)CCC3`: the AC50 was > 70 µM (inactive) at Caspase-7, 38.7 µM (active) at Caspase-3, 43.9 µM (active) on Caspase-8 and 0.44 µM (active) on Caspase-6. The IC50 at Phospholipase A2 is 1.95 µM (active); in [4], 9.39 µM (active); on Cysteine protease ATG4B, 5.65 µM (active).
`C[C@@H]1CN([C@H](C)CO)C(=O)c2cccc(NC(=O)c3ccncc3)c2O[C@H]1CN(C)C(=O)Nc1ccc(C(F)(F)F)cc1`: the AC50 (in [5]; with HEK293) was 27.7 µM (active) in each case.
In the case of `CC(C)N1CCN(C2=C(Nc3ccc(Cl)cc3)C(=O)c3ccccc3C2=O)CC1`, the AC50 in [6] was 10.5 µM (active); in test [7], 2 µM (active); in test [8], 54.7 µM (active).
